Data from ChEMBL document CHEMBL1201862, “PubChem BioAssay data set” (2004).
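Step 1: Grow cells in 96-well plates. Step 2: Expose to compound for 48 hours at 5 concentrations. Step 3: Interpolate endpoints linearly; if unreached, use highest concentration. GI50 is the concentration that inhibits growth by half.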 Calls of active or inactive are those of the source. Cut-off read from the data, not from the text of the source: active = GI50 up to about 1.1 µM and inactive = higher.

What was measured:
Test in all cases: growth of human tumour cells (NCI), 48 h
NCI-H23 = test system: NCI-H23
CAKI-1 = test system: CAKI-1
OVCAR-3 = test system: OVCAR-3
SF-268 = test system: SF-268
M14 = test system: M14
SF-295 = test system: SF-295
K562 = test system: K562
OVCAR-4 = test system: OVCAR-4
NCI-H226 = test system: NCI-H226
HOP-92 = test system: HOP-92
A549 = test system: A549
UACC-257 = test system: UACC-257
HL-60 = test system: HL-60
A498 = test system: A498
IGROV-1 = test system: IGROV-1
RPMI-8226 = test system: RPMI-8226
LOX IMVI = test system: LOX IMVI
U-251 = test system: U-251
EKVX = test system: EKVX
SK-OV-3 = test system: SK-OV-3

Measured: GI50

CCCS(=O)(=O)O
inactive: NCI-H23 > 100 µM | CAKI-1 > 100 µM | OVCAR-3 > 100 µM | SF-268 > 100 µM | M14 > 100 µM | SF-295 > 100 µM | K562 > 100 µM | OVCAR-4 > 100 µM | NCI-H226 > 100 µM | HOP-92 > 100 µM | A549 > 100 µM | UACC-257 > 100 µM | HL-60 > 100 µM | A498 > 100 µM | IGROV-1 > 100 µM | RPMI-8226 > 100 µM | LOX IMVI > 100 µM | U-251 > 100 µM | EKVX > 100 µM | SK-OV-3 > 100 µM

CO[C@H]1C=C[C@@]23c4cc5c(cc4CO[C@]2(O)CN(C)[C@H]3C1)OCO5
inactive: NCI-H23 > 100 µM | CAKI-1 > 100 µM | OVCAR-3 > 100 µM | SF-268 > 100 µM | M14 > 100 µM | SF-295 > 100 µM | K562 > 100 µM | OVCAR-4 > 100 µM | NCI-H226 > 100 µM | HOP-92 > 100 µM | A549 > 100 µM | UACC-257 > 100 µM | HL-60 > 100 µM | A498 > 100 µM | IGROV-1 > 100 µM | RPMI-8226 > 100 µM | LOX IMVI > 100 µM | U-251 > 100 µM | EKVX > 100 µM | SK-OV-3 > 100 µM

CC1C(=O)N(c2ccccc2)NC12CCCc1ccccc12 (stereo not given)
inactive: NCI-H23 > 100 µM | CAKI-1 > 100 µM | OVCAR-3 > 100 µM | SF-268 > 100 µM | M14 > 100 µM | SF-295 > 100 µM | K562 > 100 µM | OVCAR-4 > 100 µM | NCI-H226 > 100 µM | HOP-92 > 100 µM | A549 > 100 µM | UACC-257 > 100 µM | HL-60 > 100 µM | A498 > 100 µM | IGROV-1 > 100 µM | RPMI-8226 > 100 µM | LOX IMVI > 100 µM | U-251 > 100 µM | EKVX > 100 µM | SK-OV-3 > 100 µM

CN(C)c1ccc(/C=C2/SC(=S)NC2=O)cc1
inactive: NCI-H23 > 100 µM | CAKI-1 > 100 µM | OVCAR-3 > 100 µM | SF-268 > 100 µM | M14 > 100 µM | SF-295 > 100 µM | K562 > 100 µM | OVCAR-4 > 100 µM | NCI-H226 > 100 µM | HOP-92 > 100 µM | A549 > 100 µM | UACC-257 > 100 µM | HL-60 > 100 µM | A498 > 100 µM | IGROV-1 > 100 µM | RPMI-8226 > 100 µM | LOX IMVI > 100 µM | U-251 61.7 µM | EKVX > 100 µM | SK-OV-3 29.1 µM

Cc1[nH]c2ncn(/N=C/c3ccccc3O)c(=N)c2c1Cc1ccccc1
inactive: NCI-H23 50.6 µM | CAKI-1 46.1 µM | OVCAR-3 24.2 µM | SF-268 75.2 µM | M14 58.6 µM | SF-295 58.6 µM | K562 11.3 µM | OVCAR-4 63.5 µM | NCI-H226 75.5 µM | HOP-92 > 100 µM | A549 39.4 µM | UACC-257 34.4 µM | HL-60 23.6 µM | A498 36.5 µM | IGROV-1 > 100 µM | RPMI-8226 37.8 µM | LOX IMVI 59.2 µM | U-251 19.6 µM | EKVX 25 µM | SK-OV-3 > 100 µM
